Reference: article PMC5796017, “Enantiomeric Effect of D-Amino Acid Substitution on the Mechanism of Action of α-Helical Membrane-Active Peptides” (International Journal of Molecular Sciences, 2017)
In brackets after ≈: the same amount, converted by molar mass.

Tests used:
[1] = RP-HPLC retention time as relative hydrophobicity; assay type: physicochemical; conditions: 25 °C, used by the paper as measure of relative hydrophobicity
Description: The RP-HPLC retention time has been widely used to represent the relative hydrophobicity of peptides in many studies.The relative hydrophobicity of the peptides was determined by the RP-HPLC retention times at 25 °C. The change in hydrophobicity of the peptides caused by D-amino acid substitutions was mainly due to the disruption of the helical structure.

[2] = system: human red blood (hRBC) cells; assay: Hemolytic activity assay; assay type: cell-based; conditions: for MHC (minimal hemolytic concentration): 2% human RBC in PBS, 37 °C, 2 h, absorbance 578 nm, triplicate; for Hemolytic activity compared with V13K: human red blood cells
Description: The […] of the peptides was measured by a hemolytic activity assay as described previously. Briefly, healthy human RBCs were collected using an anticoagulation tube with EDTAK2 and centrifuged at 1000 rpm for 5 min. The erythrocytes were washed three times, then diluted to a concentration of 2% in phosphate-buffered saline (PBS). The peptides were serially diluted in PBS and 70 μL of the peptide solutions and 2% RBC suspension were added simultaneously to each well of a 96-well plate (round bottom) for a further incubation at 37 °C for 2 h. Then, the plates were centrifuged for 10 min at 3000 rpm and the supernatant (90 μL) was transferred to a 96-well plate (flat bottom). The absorbance of the supernatant was measured on a microplate reader at 578 nm. Erythrocytes in PBS and distilled water were used as the negative (0%) and positive (100%) controls, respectively. The hemolytic activity was calculated as the percentage of experimental group over positive control (100%), after subtraction of negative control (0%). The hemolytic assays were repeated in triplicate.

[3] = system: E. coli ATCC25922; assay: Antimicrobial activity, microtiter dilution MIC; assay type: cell-based, Escherichia coli; conditions: G−; MH medium, 5 × 10^5 CFU/mL, 37 °C, 24 h, triplicate
Description: (§1) The antimicrobial activity of the peptides was determined by the standard microtiter dilution method and indicated as MIC (minimal inhibitory concentration) as described previously. Briefly, bacteria were cultured in Mueller–Hinton (MH) medium overnight at 37 °C, diluted to a final inoculum of 5 × 10^5 colony-forming units (CFU)/mL with MH and loaded into 96-well microtiter plates (90 μL/well) with serial dilution of peptides (10 μL/well), with a further incubation at 37 °C for 24 h. MIC was expressed as the lowest peptide concentration that inhibited the growth of bacteria. The antimicrobial assays were repeated in triplicate.

[4] = system: S. epidermidis ATCC12228; assay: Antimicrobial activity, microtiter dilution MIC; assay type: cell-based, Staphylococcus epidermidis; conditions: G+; MH medium, 5 × 10^5 CFU/mL, 37 °C, 24 h, triplicate
Description: as §1

[5] = system: P. aeruginosa ATCC27853; assay: Antimicrobial activity, microtiter dilution MIC; assay type: cell-based, Pseudomonas aeruginosa; conditions: G−; MH medium, 5 × 10^5 CFU/mL, 37 °C, 24 h, triplicate
Description: as §1

[6] = system: HeLa; assay: MTT cell viability assay; assay type: cell-based, human; conditions: 24 h, mean ± SEM of three independent determinations
Description: (§2) HeLa, MIA PaCa-2, HPAC, and Bxpc-3 cells were maintained in Dulbecco’s modified Eagle medium) with 10% fetal bovine serum, penicillin (100 U/mL), and streptomycin ([…]) in a humid atmosphere at 37 °C with 5% CO2. The effect of the peptides on the survival of HeLa, MIA PaCa-2, HPAC, and Bxpc-3 cells was determined by 3-(4,5-dimethyl-2-thiazolyl)-2,5-diphenyl-2H-tetrazolium bromide (MTT) assay, as described in a previous study. Briefly, cells were seeded in 96-well plates at a density of 5000 per well. After overnight incubation, cells were incubated, in the absence, or presence of various concentrations of peptides for 24 h. Then, the formazan crystals formed by MTT were dissolved with dimethyl sulfoxide (DMSO) and the absorbance was determined at 492 nm with a microplate reader (GF-M3000; Gaomi Caihong Analytical Instruments Co., Shandong, China). The results were expressed as IC50 values, representing the concentration at which cell viability was reduced by 50%. The cytotoxicity assays were repeated in triplicate.

[7] = system: BxPC-3; assay: MTT cell viability assay; assay type: cell-based, human; conditions: BxPC-3, MTT, 24 h; mean ± SEM of three independent determinations
Description: as §2

[8] = system: MIA PaCa-2; assay: MTT cell viability assay; assay type: cell-based, human; conditions: MIA PaCa-2, MTT, 24 h; mean ± SEM of three independent determinations
Description: as §2

[9] = system: HPAC; assay: MTT cell viability assay; assay type: cell-based, human; conditions: 24 h, mean ± SEM of three independent determinations
Description: as §2

[10] = Circular dichroism (CD) secondary structure; assay type: physicochemical; conditions: for [θ]222, benign / [θ]222, 50% TFE: CD, 75 μM peptide, 25 °C; for [θ]222, benign: KP buffer (100 mM KCl, 50 mM KH2PO4/K2HPO4, pH 7.4); for [θ]222, 50% TFE / α-Helix (%), 50% TFE (relative helicity): KP buffer with 50% TFE; for α-Helix (%), 50% TFE (relative helicity) / α-Helix (%), benign: relative to molar ellipticity of V13K in 50% TFE; for α-Helix (%), benign: KP buffer
Description: The influence of the amino acid substitutions on the peptide secondary structure were investigated using circular dichroism (CD) spectroscopy under benign conditions (KP buffer) and under conditions designed to mimic the hydrophobic environment of the membrane (KP buffer with 50% TFE). D-amino acid substitutions reduced the helicity of the peptide analogs relative to that of peptide V13K, in both KP buffer and KP buffer with 50% TFE. […] As shown in Table 2 and Figure S1, the values of the relative helicity of peptides with polar face substitutions are in the order of K14D (76.99%) > S11D/K14D (51.33%) > S11D/K14D/T15D (38.67%). Similarly, the relative helicity of the peptides with substitutions on the non-polar face follows the same trend: A12D (70.83%) > F9D/A12D (38.26%) > F9D/A12D/V16D (36.41%). Since the values of the relative helicity of the peptides with D-amino acid substitutions on the non-polar face were less than those peptide analogs with the same number of D-amino acid substitutions on the polar face, it is clear that the amino acid residues on the non-polar face may be more important for stabilizing the α-helical structure than residues on the polar face.
The secondary structures of the peptides were examined using a Jasco J-810 CD spectrometer (Jasco, Easton, MD, USA) at 25 °C as described previously. […] The mean residue molar ellipticities were calculated according to the equation [θ] = θ/10lCMn, in which, θ represents the ellipticity in millidegrees, l is the optical path length of the cuvette in centimeters, CM is the peptide concentration in mol/L, and n is the number of residues in the peptide. The mean residue molar ellipticities at 222 nm, [θ]222 (degree·cm^2·dmol^−1), were used to calculate the relative helical content of the peptides.

[11] = system: S. aureus ATCC25923; assay: Antimicrobial activity, microtiter dilution MIC; assay type: cell-based, Staphylococcus aureus; conditions: G+; MH medium, 5 × 10^5 CFU/mL, 37 °C, 24 h, triplicate
Description: as §1

| Compound | tR (RP-HPLC retention time), relative hydrophobicity [1] | MHC (minimal hemolytic concentration) [2] | Hemolytic activity compared with V13K [2] | MIC [3] | MIC [4] | MIC [5] | IC50 [6] | IC50 [7] | IC50 [8] | IC50 [9] | [θ]222, benign [10] | [θ]222, 50% TFE [10] | α-Helix (%), 50% TFE (relative helicity) [10] | α-Helix (%), benign [10] | MIC [11] |
| --- | --- | --- | --- | --- | --- | --- | --- | --- | --- | --- | --- | --- | --- | --- | --- |
| CC[C@H](C)[C@H](NC(=O)[C@H](C)NC(=O)[C@H](CCCCN)NC(=O)[C@H](CC(C)C)NC(=O)[C@H](C)NC(=O)[C@@H](NC(=O)[C@H](Cc1c[nH]cn1)NC(=O)[C@H](CC(C)C)NC(=O)[C@H](NC(=O)[C@@H](NC(=O)[C@H](CCCCN)NC(=O)[C@H](CCCCN)NC(=O)[C@@H](C)NC(=O)[C@H](CO)NC(=O)[C@H](CCCCN)NC(=O)[C@H](Cc1ccccc1)NC(=O)[C@@H](NC(=O)[C@H](CCCCN)NC(=O)[C@H](CC(C)C)NC(=O)[C@H](Cc1ccccc1)NC(=O)[C@H](CO)NC(=O)[C@H](CCCCN)NC(=O)[C@H](Cc1c[nH]c2ccccc12)NC(=O)[C@H](CCCCN)NC(C)=O)[C@@H](C)O)[C@@H](C)O)C(C)C)[C@@H](C)O)C(=O)N[C@@H](CO)C(=O)N[C@@H](CO)C(N)=O [A12D/V16D] | 39.79 min | >500 µM | much less hemolytic activity than V13K | 125 µM (≈ 374 µg/mL) | 125 µM (≈ 374 µg/mL) | 32 µM (≈ 95.7 µg/mL) | 60.1 ± 1.2 µM | 125 ± 5.9 µM | 46.2 ± 3 µM | 41.4 ± 1.4 µM | −3435.72 degree·cm^2·dmol^−1 | −23,452.9 degree·cm^2·dmol^−1 | 46.42% | 6.8% | 125 µM (≈ 374 µg/mL) |
| CC[C@H](C)[C@H](NC(=O)[C@H](C)NC(=O)[C@H](CCCCN)NC(=O)[C@H](CC(C)C)NC(=O)[C@H](C)NC(=O)[C@@H](NC(=O)[C@H](Cc1c[nH]cn1)NC(=O)[C@H](CC(C)C)NC(=O)[C@H](NC(=O)[C@@H](NC(=O)[C@H](CCCCN)NC(=O)[C@H](CCCCN)NC(=O)[C@@H](C)NC(=O)[C@H](CO)NC(=O)[C@H](CCCCN)NC(=O)[C@@H](Cc1ccccc1)NC(=O)[C@@H](NC(=O)[C@H](CCCCN)NC(=O)[C@H](CC(C)C)NC(=O)[C@H](Cc1ccccc1)NC(=O)[C@H](CO)NC(=O)[C@H](CCCCN)NC(=O)[C@H](Cc1c[nH]c2ccccc12)NC(=O)[C@H](CCCCN)NC(C)=O)[C@@H](C)O)[C@@H](C)O)C(C)C)[C@@H](C)O)C(=O)N[C@@H](CO)C(=O)N[C@@H](CO)C(N)=O [F9D/A12D/V16D] | 39.06 min | >500 µM | much less hemolytic activity than V13K | 125 µM (≈ 374 µg/mL) | 125 µM (≈ 374 µg/mL) | 125 µM (≈ 374 µg/mL) | 125 ± 3.4 µM | 125 ± 1.8 µM | 57.9 ± 2.8 µM | 95.6 ± 1.8 µM | −1907.83 degree·cm^2·dmol^−1 | −18,393.1 degree·cm^2·dmol^−1 | 36.41% | 3.8% | 125 µM (≈ 374 µg/mL) |
| CC[C@H](C)[C@H](NC(=O)[C@H](C)NC(=O)[C@H](CCCCN)NC(=O)[C@H](CC(C)C)NC(=O)[C@H](C)NC(=O)[C@@H](NC(=O)[C@H](Cc1c[nH]cn1)NC(=O)[C@H](CC(C)C)NC(=O)[C@@H](NC(=O)[C@@H](NC(=O)[C@H](CCCCN)NC(=O)[C@H](CCCCN)NC(=O)[C@@H](C)NC(=O)[C@H](CO)NC(=O)[C@H](CCCCN)NC(=O)[C@@H](Cc1ccccc1)NC(=O)[C@@H](NC(=O)[C@H](CCCCN)NC(=O)[C@H](CC(C)C)NC(=O)[C@H](Cc1ccccc1)NC(=O)[C@H](CO)NC(=O)[C@H](CCCCN)NC(=O)[C@H](Cc1c[nH]c2ccccc12)NC(=O)[C@H](CCCCN)NC(C)=O)[C@@H](C)O)[C@@H](C)O)C(C)C)[C@@H](C)O)C(=O)N[C@@H](CO)C(=O)N[C@@H](CO)C(N)=O [F9D/A12D] | 40.04 min | 250 µM |  | 125 µM (≈ 374 µg/mL) | 64 µM (≈ 191 µg/mL) | 32 µM (≈ 95.7 µg/mL) | 59.8 ± 0.5 µM | 125 ± 3.7 µM | 38.8 ± 2.9 µM | 42.4 ± 3 µM | −2319.89 degree·cm^2·dmol^−1 | −19,328.6 degree·cm^2·dmol^−1 | 38.26% | 4.6% | 125 µM (≈ 374 µg/mL) |
| CC[C@H](C)[C@H](NC(=O)[C@H](C)NC(=O)[C@H](CCCCN)NC(=O)[C@H](CC(C)C)NC(=O)[C@H](C)NC(=O)[C@@H](NC(=O)[C@H](Cc1c[nH]cn1)NC(=O)[C@H](CC(C)C)NC(=O)[C@@H](NC(=O)[C@H](NC(=O)[C@@H](CCCCN)NC(=O)[C@H](CCCCN)NC(=O)[C@H](C)NC(=O)[C@H](CO)NC(=O)[C@H](CCCCN)NC(=O)[C@H](Cc1ccccc1)NC(=O)[C@@H](NC(=O)[C@H](CCCCN)NC(=O)[C@H](CC(C)C)NC(=O)[C@H](Cc1ccccc1)NC(=O)[C@H](CO)NC(=O)[C@H](CCCCN)NC(=O)[C@H](Cc1c[nH]c2ccccc12)NC(=O)[C@H](CCCCN)NC(C)=O)[C@@H](C)O)[C@H](C)O)C(C)C)[C@@H](C)O)C(=O)N[C@@H](CO)C(=O)N[C@@H](CO)C(N)=O [K14D/T15D] | 40.41 min | 250 µM |  | 64 µM (≈ 191 µg/mL) | 16 µM (≈ 47.9 µg/mL) | 32 µM (≈ 95.7 µg/mL) | 31.6 ± 2.1 µM | 24.1 ± 5.5 µM | 47.1 ± 5.3 µM | 22.5 ± 0.5 µM | −1862.4 degree·cm^2·dmol^−1 | −28,551.5 degree·cm^2·dmol^−1 | 56.51% | 3.7% | 64 µM (≈ 191 µg/mL) |
